According to patent US11986471B2, “Compounds and methods of use” (Tango Therapeutics, Inc., priority 2018, dated 2024):

How the values were obtained:
Assay type in all cases: biochemical
PRMT5 [1] = biological target: T1, PRMT5 (Homo sapiens, UniProt O14744); assay: PRMT5 IC50 assay in the presence of SAM as cofactor
T1 construct: purchased Viva (custom protein)
Description: (§1) Table 1a indicates IC50 values (μM) against PRMT5 for exemplary compounds in the presence of SAM as cofactor, with no cofactor and with MTA as cofactor, respectively (columns 3-5). […] The Ki values can be calculated from the IC50 values as described in the Examples section. As detailed in the Examples section, for the assay performed in the presence of SAM, IC50=Ki×1.5 (Ki=IC50/1.5). For the assay performed in the presence of MTA, IC50=Ki×13.5 (Ki=IC50/13.5). Column 6 indicates the ratio between the Ki of compounds in the presence of SAM and the Ki of compounds in the presence of MTA

PRMT5 [2] = biological target: T1, PRMT5; assay: PRMT5 IC50 assay with no cofactor
Description: as §1

PRMT5 [3] = biological target: T1, PRMT5; assay: PRMT5 IC50 assay in the presence of MTA as cofactor; conditions: for IC50: PRMT5, MTA as cofactor; for SAM/MTA Ratio: ratio between the Ki in the presence of SAM and the Ki in the presence of MTA
Description: as §1

T1 sequence (O14744 whole entry): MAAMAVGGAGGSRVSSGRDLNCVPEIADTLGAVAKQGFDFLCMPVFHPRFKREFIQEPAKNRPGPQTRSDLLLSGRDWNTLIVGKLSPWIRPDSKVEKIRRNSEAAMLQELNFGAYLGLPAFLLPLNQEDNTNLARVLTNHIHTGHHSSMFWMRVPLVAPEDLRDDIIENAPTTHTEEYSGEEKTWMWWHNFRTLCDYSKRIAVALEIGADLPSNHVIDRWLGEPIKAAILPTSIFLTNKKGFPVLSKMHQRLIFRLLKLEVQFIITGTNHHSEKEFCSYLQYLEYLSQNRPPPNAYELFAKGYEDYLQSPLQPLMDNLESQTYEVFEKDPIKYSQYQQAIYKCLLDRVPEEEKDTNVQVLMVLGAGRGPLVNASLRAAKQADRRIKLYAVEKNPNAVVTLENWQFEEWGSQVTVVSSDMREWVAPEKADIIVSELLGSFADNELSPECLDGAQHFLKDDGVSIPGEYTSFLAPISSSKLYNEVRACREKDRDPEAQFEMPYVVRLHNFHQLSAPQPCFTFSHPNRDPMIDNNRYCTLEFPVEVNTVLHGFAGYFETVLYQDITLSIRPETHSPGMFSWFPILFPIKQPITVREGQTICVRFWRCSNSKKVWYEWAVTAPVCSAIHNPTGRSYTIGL
T1 sequence (Q9BQA1 whole entry partner): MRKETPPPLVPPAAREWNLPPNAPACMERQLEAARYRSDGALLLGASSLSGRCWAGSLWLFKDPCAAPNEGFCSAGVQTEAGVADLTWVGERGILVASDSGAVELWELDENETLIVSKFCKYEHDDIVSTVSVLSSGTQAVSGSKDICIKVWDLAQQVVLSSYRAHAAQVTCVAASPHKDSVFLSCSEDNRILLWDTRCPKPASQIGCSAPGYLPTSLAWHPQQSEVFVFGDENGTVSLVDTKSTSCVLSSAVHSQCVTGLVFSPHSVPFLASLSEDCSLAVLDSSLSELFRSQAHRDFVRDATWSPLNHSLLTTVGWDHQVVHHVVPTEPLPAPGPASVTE

Structure (SMILES) | IC50 (PRMT5 [1]) [µM] | IC50 (PRMT5 [2]) [µM] | IC50 (PRMT5 [3]) [µM] | SAM/MTA Ratio (PRMT5 [3])
O=C(NC[C@H](O)CN1CCc2cc(OCc3cnco3)ccc2C1)c1cc(NC2CCOCC2)ccn1 [Compound 511, (S)—N-(2-hydroxy-3-(6-(oxazol-5-ylmethoxy)-3,4-dihydroisoquinolin-2(1H)-yl)propyl)-4-((tetrahydro-2H-pyran-4-yl)amino)picolinamide] | 0.5 to 5 | ≥ 5 | 0.5 to 5 | A (a Ki ratio greater than or equal to 10 fold between the Ki in the presence of SAM and the Ki in the presence of MTA)
Cc1c(OCc2cnco2)ccc2c1CCN(C[C@@H](O)CNC(=O)c1ccnc(NC34CC(C3)C4)c1)C2 [Compound 514, (S)-2-(bicyclo[1.1.1]pentan-1-ylamino)-N-(2-hydroxy-3-(5-methyl-6-(oxazol-5-ylmethoxy)-3N-dihydroisoquinolin-2(1H)-yl)propyl)isonicotinamide] | 0.5 to 5 | ≥ 5 | 0.5 to 5 | A (a Ki ratio greater than or equal to 10 fold between the Ki in the presence of SAM and the Ki in the presence of MTA)
Cc1c(OCc2ccnn2C)ccc2c1CCN(C[C@@H](O)CNC(=O)c1cc(NC3CCC3)ccn1)C2 [Compound 521, (S)-4-(cyclobutylamino)-N-(2-hydroxy-3-(5-methyl-6-((1-methyl-1H-pyrazol-5-yl)methoxy)-3N-dihydroisoquinolin-2(1H)-yl)propyl)picolinamide] | 0.5 to 5 | ≥ 5 | 0.5 to 5 | A (a Ki ratio greater than or equal to 10 fold between the Ki in the presence of SAM and the Ki in the presence of MTA)
CC(=O)N1CCC(Nc2cccc(C(=O)NC[C@H](O)CN3CCc4c(ccc(OCc5cnco5)c4C)C3)c2)C1 (stereo partly drawn) [Compound 525, 3-[(1-acetylpyrrolidin-3-yl)amino]-N-[(2S)-2-hydroxy-3-{5-methyl-6-[(1,3-oxazol-5-yl)methoxy]-1,2,3,4-tetrahydroisoquinolin-2-yl}propyl]benzamide] | 0.5 to 5 | ≥ 5 | 0.5 to 5 | A (a Ki ratio greater than or equal to 10 fold between the Ki in the presence of SAM and the Ki in the presence of MTA)
Cc1c(OCc2cnco2)ccc2c1CCN(C[C@@H](O)CNC(=O)c1ccnc(Nc3cccnc3)c1)C2 [Compound 531, N-[(2S)-2-hydroxy-3-{5-methyl-6-[(1,3-oxazol-5-yl)methoxy]-1,2,3,4-tetrahydroisoquinolin-2-yl}propyl]-2-[(pyridin-3-yl)amino]pyridine-4-carboxamide] | 0.5 to 5 | ≥ 5 | 0.5 to 5 | A (a Ki ratio greater than or equal to 10 fold between the Ki in the presence of SAM and the Ki in the presence of MTA)
CO[C@H]1C[C@@H](Nc2cc(C(=O)NC[C@H](O)CN3CCc4c(ccc(OCc5cnco5)c4C)C3)ccn2)C1 [Compound 535] | 0.5 to 5 | ≥ 5 | 0.05 to 0.5 | A (a Ki ratio greater than or equal to 10 fold between the Ki in the presence of SAM and the Ki in the presence of MTA)
Cn1nccc1COc1ccc2c(c1)CCN(C[C@@H](O)CNC(=O)c1cc(NC3CCC3)ccn1)C2 [Compound 542, (S)-4-(cyclobutylamino)-N-(2-hydroxy-3-(6-((1-methyl-1H-pyrazol-5-yl)methoxy)-3N-dihydroisoquinolin-2(1H)-yl)propyl)picolinamide] | 0.5 to 5 | ≥ 5 | 0.05 to 0.5 | A (a Ki ratio greater than or equal to 10 fold between the Ki in the presence of SAM and the Ki in the presence of MTA)

The next lines start with results.

IC50 (PRMT5 [1]) [µM] | IC50 (PRMT5 [2]) [µM] | IC50 (PRMT5 [3]) [µM] | Structure (SMILES) | SAM/MTA Ratio (PRMT5 [3])
0.5 to 5 | ≥ 5 | 0.5 to 5 | COCC(=O)N1CC(Nc2cc(C(=O)NC[C@H](O)CN3CCc4c(ccc(OCc5cnco5)c4C)C3)ncn2)C1 [Compound 518, N-[(2S)-2-hydroxy-3-{5-methyl-6-[(1,3-oxazol-5-yl)methoxy]-1,2,3,4-tetrahydroisoquinolin-2-yl}propyl]-6-{[1-(2-methoxyacetyl)azetidin-3-yl]amino}pyrimidine-4-carboxamide] | A (a Ki ratio greater than or equal to 10 fold between the Ki in the presence of SAM and the Ki in the presence of MTA)
0.5 to 5 | ≥ 5 | 0.5 to 5 | Cc1c(OCc2cnco2)ccc2c1CCN(C[C@@H](O)CNC(=O)c1cc(N[C@H]3C[C@H](C(=O)N4CCC4)C3)ncn1)C2 [Compound 519, N-[(2S)-2-hydroxy-3-{5-methyl-6-[(1,3-oxazol-5-yl)methoxy]-1,2,3,4-tetrahydroisoquinolin-2-yl}propyl]-6-{[(1r,3r)-3-(azetidine-1-carbonyl)cyclobutyl]amino}pyrimidine-4-carboxamide] | A (a Ki ratio greater than or equal to 10 fold between the Ki in the presence of SAM and the Ki in the presence of MTA)
0.5 to 5 | ≥ 5 | 0.5 to 5 | CNC(=O)CN1CCC(Nc2cc(C(=O)NC[C@H](O)CN3CCc4c(ccc(OCc5cnco5)c4C)C3)ncn2)CC1 [Compound 524, N-[(2S)-2-hydroxy-3-{5-methyl-6-[(1,3-oxazol-5-yl)methoxy]-1,2,3,4-tetrahydroisoquinolin-2-yl}propyl]-6-{[1-[(methylcarbamoyl)methyl]piperidin-4-yl}amino)pyrimidine-4-carboxamide] | A (a Ki ratio greater than or equal to 10 fold between the Ki in the presence of SAM and the Ki in the presence of MTA)
0.5 to 5 | ≥ 5 | 0.05 to 0.5 | Cc1c(OCc2cnco2)ccc2c1CCN(C[C@@H](O)CNC(=O)c1cc(N[C@H]3C[C@H](C(=O)N4CCCCC4)C3)ncn1)C2 [Compound 526] | A (a Ki ratio greater than or equal to 10 fold between the Ki in the presence of SAM and the Ki in the presence of MTA)
0.5 to 5 | ≥ 5 | 0.05 to 0.5 | Cc1c(OCc2cnco2)ccc2c1CCN(C[C@@H](O)CNC(=O)c1ccnc(N[C@H]3C[C@H](CO)C3)c1)C2 [Compound 537, N—((S)-2-hydroxy-3-(5-methyl-6-(oxazol-5-ylmethoxy)-3N-dihydroisoquinolin-2(1H)-yl)propyl)-2-(((1r,3S)-3-(hydroxymethyl)cyclobutyl)amino)isonicotinamide] | A (a Ki ratio greater than or equal to 10 fold between the Ki in the presence of SAM and the Ki in the presence of MTA)
0.5 to 5 | ≥ 5 | 0.05 to 0.5 | O=C(NC[C@H](O)CN1CCc2cc(OCc3cnco3)ccc2C1)c1cc(NC2CCC2)ncn1 [Compound 538, (S)-6-(cyclobutylamino)-N-(2-hydroxy-3-(6-(oxazol-5-ylmethoxy)-3,4-dihydroisoquinolin-2(1H)-yl)propyl)pyrimidine-4-carboxamide] | A (a Ki ratio greater than or equal to 10 fold between the Ki in the presence of SAM and the Ki in the presence of MTA)
0.5 to 5 | ≥ 5 | 0.05 to 0.5 | CO[C@H]1CC[C@@H](Nc2cc(C(=O)NC[C@H](O)CN3CCc4c(ccc(OCc5cnco5)c4C)C3)ncn2)CC1 [Compound 541, N-[(2S)-2-hydroxy-3-{5-methyl-6-[(1,3-oxazol-5-yl)methoxy]-1,2,3,4-tetrahydroisoquinolin-2-yl}propyl]-6-{[(1s,4s)-4-methoxycyclohexyl]amino}pyrimidine-4-carboxamide] | A (a Ki ratio greater than or equal to 10 fold between the Ki in the presence of SAM and the Ki in the presence of MTA)
